Measured values published in patent publication US10494366B2, “Pesticidally active amide heterocyclic derivatives with sulphur containing substituents” (Syngenta Participations AG, priority 2014, dated 2019).

Legend:
Assay type in all cases: in vivo
[1] = test system: Plutella xylostella (diamond back moth); assay: Example B3: Plutella xylostella, treated artificial diet; conditions: 120 h, application rate 200 ppm, L2 larvae, 5 days after infestation, read-out: effect in at least one of the two categories (mortality or growth inhibition)
Experimental: (§1) 24-well microtiter plates with artificial diet were treated with aqueous test solutions prepared from 10,000 ppm DMSO stock solutions by pipetting. After drying, the plates were infested with L2 larvae (10 to 15 per well). The samples were assessed for mortality and growth inhibition in comparison to untreated samples 5 days after infestation.

[2] = test system: Diabrotica balteata (corn root worm); assay: Example B4: Diabrotica balteata, sprayed maize sprouts; conditions: 96 h, application rate 200 ppm, L2 larvae, 4 days after infestation, read-out: effect in at least one of the two categories (mortality or growth inhibition)
Experimental: as §1, with “Maize sprouts, placed on an agar layer in 24-well” for “24-well”, “plates” for “plates with artificial diet”, “spraying.” for “pipetting.”, “(6” for “(10”, “10” for “15”, “4” for “5”

[3] = test system: Euschistus heros (neotropical brown stink bug); assay: Example B6: Euschistus heros, sprayed soybean leaf; conditions: 120 h, application rate 200 ppm, N-2 nymphs, 5 days after infestation
Excerpt: Soybean leaf on agar in 24-well microtiter plates were sprayed with aqueous test solutions prepared from 10,000 ppm DMSO stock solutions. After drying the leaf were infested with N-2 nymphs.

[4] = test system: Myzus persicae (green peach aphid); assay: Example B5: Myzus persicae, sprayed sunflower leaf discs; conditions: foliar, 144 h, application rate 200 ppm, aphid population of mixed ages, 6 days after infestation
Experimental: Sunflower leaf discs were placed on agar in a 24-well microtiter plate and sprayed with aqueous test solutions prepared from 10,000 ppm DMSO stock solutions. After drying, the leaf discs were infested with an aphid population of mixed ages. The samples were assessed for mortality 6 days after infestation.

[5] = test system: Spodoptera littoralis (Egyptian cotton leaf worm); assay: Example B1: Spodoptera littoralis, sprayed cotton leaf discs; conditions: foliar, 72 h, application rate 200 ppm, L1 larvae, 3 days after infestation, read-out: control in at least one of the three categories (mortality, anti-feedancy or growth inhibition)
Experimental: Cotton leaf discs were placed on agar in 24-well microtiter plates and sprayed with aqueous test solutions prepared from 10,000 ppm DMSO stock solutions. After drying the leaf discs were infested with five L1 larvae. The samples were assessed for mortality, anti-feedant effect, and growth inhibition in comparison to untreated samples 3 days after infestation. Control of Spodoptera littoralis by a test sample is when at least one of mortality, anti-feedant effect, and growth inhibition is higher than the untreated sample.

[6] = test system: Spodoptera littoralis (Egyptian cotton leaf worm); assay: Example B2: Spodoptera littoralis, systemic test via lettuce roots in agar; conditions: 144 h, application rate 12.5 ppm, Spodoptera eggs, 6 days after infestation, read-out: control in at least one of the three categories (mortality, anti-feedancy or growth inhibition)
Excerpt: Test compounds were applied by pipette from 10,000 ppm DMSO stock solutions into 24-well plates and mixed with agar. Lettuce seeds were placed on the agar and the multi well plate was closed by another plate which contains also agar. After 7 days the roots have absorbed the compound and the lettuce has grown into the lid plate. The lettuce leafs were now cut off into the lid plate. Spodoptera eggs were pipetted through a plastic stencil on a humid gel blotting paper and the plate closed with it. The samples were assessed for mortality, anti-feedant effect and growth inhibition in comparison to untreated samples 6 days after infestation.
The following compounds gave an effect of at least 80% control in at least one of the three categories (mortality, anti-feedancy or growth inhibition) at an application rate of 12.5 ppm: P2, P3, P8, P9, P11 and P17, P19, P20, P22, P23, P25, P26, P28, P30, P31, P32, P33, P40, P42, P43, P44, P45, P46, P47, P48, P49, P50, P51, P52, P53, P54, P60 and P61.

CCS(=O)(=O)c1cc(-c2ccc(Cl)cc2)cnc1C(=O)/N=c1\sc(C(F)(F)F)nn1C [Compound P2, (N)-5-(4-chlorophenyl)-3-ethylsulfonyl-N-[3-methyl-5-(trifluoromethyl)-1,3,4-thiadiazol-2-ylidene]pyridine-2-carboxamide]
≥ 80%: percent effect (mortality or growth inhibition) at 200 ppm [1] | percent effect (mortality or growth inhibition) at 200 ppm [2] | mortality at 200 ppm [3] | mortality at 200 ppm [4] | percent control (mortality, anti-feedant effect or growth inhibition) at 200 ppm [5] | percent control (mortality, anti-feedant effect or growth inhibition) at 12.5 ppm [6]

CCS(=O)(=O)c1cc(-c2ccc(C(F)(F)F)cc2)cnc1C(=O)/N=c1\sc(C(F)(F)F)nn1C [Compound P5]
≥ 80%: percent effect (mortality or growth inhibition) at 200 ppm [1] | percent effect (mortality or growth inhibition) at 200 ppm [2] | mortality at 200 ppm [3] | mortality at 200 ppm [4] | percent control (mortality, anti-feedant effect or growth inhibition) at 200 ppm [5]

CCS(=O)(=O)c1cc(-c2ccccc2)cnc1C(=O)/N=c1\sc(C(F)(F)F)nn1C [Compound P6, (N)-3-ethylsulfonyl-N-[3-methyl-5-(trifluoromethyl)-1,3,4-thiadiazol-2-ylidene]-5-phenyl-pyridine-2-carboxamide]
≥ 80%: percent effect (mortality or growth inhibition) at 200 ppm [1] | percent effect (mortality or growth inhibition) at 200 ppm [2] | mortality at 200 ppm [3] | mortality at 200 ppm [4] | percent control (mortality, anti-feedant effect or growth inhibition) at 200 ppm [5]

CCS(=O)(=O)c1cc(-c2ccc(Cl)cc2)cnc1C(=O)/N=c1\sc(C(F)(F)C(F)(F)F)nn1C [Compound P11]
≥ 80%: percent effect (mortality or growth inhibition) at 200 ppm [1] | percent effect (mortality or growth inhibition) at 200 ppm [2] | mortality at 200 ppm [3] | mortality at 200 ppm [4] | percent control (mortality, anti-feedant effect or growth inhibition) at 200 ppm [5] | percent control (mortality, anti-feedant effect or growth inhibition) at 12.5 ppm [6]

CCS(=O)(=O)c1cc(-c2ccc(C(F)(F)F)cc2)cnc1C(=O)N=c1ccc(SC(F)(F)F)cn1C [Compound P16]
≥ 80%: percent effect (mortality or growth inhibition) at 200 ppm [1] | percent effect (mortality or growth inhibition) at 200 ppm [2] | mortality at 200 ppm [3] | mortality at 200 ppm [4] | percent control (mortality, anti-feedant effect or growth inhibition) at 200 ppm [5]

CCS(=O)(=O)c1cc(C2CC2)cnc1C(=O)/N=c1\ccc(SC(F)(F)F)cn1C [Compound P18, (N)-5-cyclopropyl-3-ethylsulfonyl-N-[1-methyl-5-(trifluoromethylsulfanyl)-2-pyridylidene]pyridine-2-carboxamide]
≥ 80%: percent effect (mortality or growth inhibition) at 200 ppm [1] | percent effect (mortality or growth inhibition) at 200 ppm [2] | mortality at 200 ppm [3] | mortality at 200 ppm [4] | percent control (mortality, anti-feedant effect or growth inhibition) at 200 ppm [5]

CCS(=O)(=O)c1cc(-c2cc(F)ccc2F)cnc1C(=O)/N=c1\sc(C(F)(F)F)nn1C [Compound P33]
≥ 80%: percent effect (mortality or growth inhibition) at 200 ppm [1] | percent effect (mortality or growth inhibition) at 200 ppm [2] | mortality at 200 ppm [3] | percent control (mortality, anti-feedant effect or growth inhibition) at 200 ppm [5] | percent control (mortality, anti-feedant effect or growth inhibition) at 12.5 ppm [6]

CCS(=O)(=O)c1cc(-c2ncc(C(F)(F)F)cn2)cnc1C(=O)/N=c1\sc(C(F)(F)F)nn1C [Compound P43]
≥ 80%: percent effect (mortality or growth inhibition) at 200 ppm [1] | percent effect (mortality or growth inhibition) at 200 ppm [2] | mortality at 200 ppm [3] | percent control (mortality, anti-feedant effect or growth inhibition) at 200 ppm [5] | percent control (mortality, anti-feedant effect or growth inhibition) at 12.5 ppm [6]

CCS(=O)(=O)c1cc(-c2cccc(C(F)(F)F)n2)cnc1C(=O)/N=c1\sc(C(F)(F)F)nn1C [Compound P44]
≥ 80%: percent effect (mortality or growth inhibition) at 200 ppm [1] | percent effect (mortality or growth inhibition) at 200 ppm [2] | mortality at 200 ppm [3] | percent control (mortality, anti-feedant effect or growth inhibition) at 200 ppm [5] | percent control (mortality, anti-feedant effect or growth inhibition) at 12.5 ppm [6]

CCS(=O)(=O)c1cc(-c2ncc(C(F)(F)F)cc2F)cnc1C(=O)/N=c1\sc(C(F)(F)F)nn1C [Compound P47]
≥ 80%: percent effect (mortality or growth inhibition) at 200 ppm [1] | percent effect (mortality or growth inhibition) at 200 ppm [2] | mortality at 200 ppm [3] | percent control (mortality, anti-feedant effect or growth inhibition) at 200 ppm [5] | percent control (mortality, anti-feedant effect or growth inhibition) at 12.5 ppm [6]

CCS(=O)(=O)c1cc(-c2cccc(C#N)n2)cnc1C(=O)/N=c1\sc(C(F)(F)F)nn1C [Compound P48]
≥ 80%: percent effect (mortality or growth inhibition) at 200 ppm [1] | percent effect (mortality or growth inhibition) at 200 ppm [2] | mortality at 200 ppm [3] | percent control (mortality, anti-feedant effect or growth inhibition) at 200 ppm [5] | percent control (mortality, anti-feedant effect or growth inhibition) at 12.5 ppm [6]

CCS(=O)(=O)c1cc(-c2ccc(Cl)cn2)cnc1C(=O)/N=c1\sc(C(F)(F)F)nn1C [Compound P49]
≥ 80%: percent effect (mortality or growth inhibition) at 200 ppm [1] | percent effect (mortality or growth inhibition) at 200 ppm [2] | mortality at 200 ppm [3] | percent control (mortality, anti-feedant effect or growth inhibition) at 200 ppm [5] | percent control (mortality, anti-feedant effect or growth inhibition) at 12.5 ppm [6]

CCS(=O)(=O)c1cc(-c2ccc(C(F)(F)F)cn2)cnc1C(=O)/N=c1\sc(C(F)(F)F)nn1C [Compound P50]
≥ 80%: percent effect (mortality or growth inhibition) at 200 ppm [1] | percent effect (mortality or growth inhibition) at 200 ppm [2] | mortality at 200 ppm [3] | percent control (mortality, anti-feedant effect or growth inhibition) at 200 ppm [5] | percent control (mortality, anti-feedant effect or growth inhibition) at 12.5 ppm [6]

CCS(=O)(=O)c1cc(-c2ccc(C#N)nc2)cnc1C(=O)/N=c1\sc(C(F)(F)F)nn1C [Compound P52]
≥ 80%: percent effect (mortality or growth inhibition) at 200 ppm [1] | percent effect (mortality or growth inhibition) at 200 ppm [2] | mortality at 200 ppm [3] | percent control (mortality, anti-feedant effect or growth inhibition) at 200 ppm [5] | percent control (mortality, anti-feedant effect or growth inhibition) at 12.5 ppm [6]

CCS(=O)(=O)c1cc(-c2cncc(C(F)(F)F)c2)cnc1C(=O)/N=c1\sc(C(F)(F)F)nn1C [Compound P53]
≥ 80%: percent effect (mortality or growth inhibition) at 200 ppm [1] | percent effect (mortality or growth inhibition) at 200 ppm [2] | mortality at 200 ppm [4] | percent control (mortality, anti-feedant effect or growth inhibition) at 200 ppm [5] | percent control (mortality, anti-feedant effect or growth inhibition) at 12.5 ppm [6]

CCS(=O)(=O)c1cc(-c2cnc(C(F)(F)F)s2)cnc1C(=O)/N=c1\sc(C(F)(F)F)nn1C [Compound P56]
≥ 80%: percent effect (mortality or growth inhibition) at 200 ppm [1] | percent effect (mortality or growth inhibition) at 200 ppm [2] | mortality at 200 ppm [4] | percent control (mortality, anti-feedant effect or growth inhibition) at 200 ppm [5]

CCS(=O)(=O)c1cc(-c2nc(C(F)(F)F)cs2)cnc1C(=O)/N=c1\sc(C(F)(F)F)nn1C [Compound P60]
≥ 80%: percent effect (mortality or growth inhibition) at 200 ppm [1] | percent effect (mortality or growth inhibition) at 200 ppm [2] | mortality at 200 ppm [4] | percent control (mortality, anti-feedant effect or growth inhibition) at 200 ppm [5] | percent control (mortality, anti-feedant effect or growth inhibition) at 12.5 ppm [6]

CCS(=O)(=O)c1cc(-c2cncc(C(F)(F)F)n2)cnc1C(=O)/N=c1\sc(C(F)(F)F)nn1C [Compound P61]
≥ 80%: percent effect (mortality or growth inhibition) at 200 ppm [1] | percent effect (mortality or growth inhibition) at 200 ppm [2] | mortality at 200 ppm [3] | percent control (mortality, anti-feedant effect or growth inhibition) at 200 ppm [5] | percent control (mortality, anti-feedant effect or growth inhibition) at 12.5 ppm [6]

CCS(=O)(=O)c1cc(-c2cccc(Cl)n2)cnc1C(=O)/N=c1\sc(C(F)(F)F)nn1C [Compound P64, (N)-5-(6-chloro-2-pyridyl)-3-ethylsulfonyl-N-[3-methyl-5-(trifluoromethyl)-1,3,4-thiadiazol-2-ylidene]pyridine-2-carboxamide]
≥ 80%: percent effect (mortality or growth inhibition) at 200 ppm [1] | percent effect (mortality or growth inhibition) at 200 ppm [2] | mortality at 200 ppm [3] | mortality at 200 ppm [4] | percent control (mortality, anti-feedant effect or growth inhibition) at 200 ppm [5]

CCS(=O)(=O)c1cc(-c2ncc(F)cc2F)cnc1C(=O)/N=c1\sc(C(F)(F)F)nn1C [Compound P66]
≥ 80%: percent effect (mortality or growth inhibition) at 200 ppm [1] | percent effect (mortality or growth inhibition) at 200 ppm [2] | mortality at 200 ppm [3] | mortality at 200 ppm [4] | percent control (mortality, anti-feedant effect or growth inhibition) at 200 ppm [5]
